According to US12043652B2, “Engineered extracellular receptor constructs and uses thereof” (TRUSTEES OF BOSTON UNIVERSITY, priority 2020, dated 2024):
Entries after “also recorded” stand apart in the source; their conditions may differ.

Key:
Type in all cases: cell-based
[1] = system: BCL-xL-BH3(G22)-Gal4-VP64 sensor; assay: BCL-xL-BH3(G22)-Gal4-VP64 sensor: ICD driven H2B-mCherry reporter expression
Experimental: FIG. 3 Activity of BCL-xL-BH3(G22)-Gal4-VP64 upon presence of BCL-xL inhibitors. BCL-xL serves as a ligand binding domain and BH3(G22) serves as an intramolecular peptide. […] H2B mCherry expression is visualized via microscopy. A fluorescent transfection marker is also shown to verify the presence of cells as a smaller corresponding image. Images were taken 48 hours after transfection and drug addition. Scale bar 50 μm.
(§1) Upon addition of inducer and either gamma secretase inhibitor, H2B-mCherry signal is ablated. Images are taken 24 hours after transfection and drug addition. A fluorescent transfection marker is shown as a smaller corresponding image. […] Scale bar 50 μm.
The inventors next applied this methodology to a completely different LBD and peptide pair, BCL-xL and the BH3(G22) peptide, while keeping the ICD the same.

γ-secretase = assay: Gamma secretase dependence of two sensors (H2B-mCherry reporter with inducer plus gamma secretase inhibitor); details: dNS3-(EDVVCC) and BCL-xL-BH3(G22) sensors, inducer grazoprevir 3 μM or ABT-737 3 μM, DAPT 5 μM, Compound E 1 μM, 24 hours
Experimental: FIG. 4 Gamma secretase dependence of two distinct sensors. dNS3-(EDVVCC (SEQ ID NO: 57))-TMD-Gal4-VP64 and BCL-xL-BH3(G22)-TMD-Gal4-VP64 sensors were tested for gamma secretase dependence via the addition of gamma secretase inhibitors DAPT and Compound E (Cpd E). […] Upon addition of inducer and either gamma secretase inhibitor, H2B-mCherry signal is ablated. Images are taken 24 hours after transfection and drug addition. A fluorescent transfection marker is shown as a smaller corresponding image. Drug concentrations are as follows: NS3 inducer, grazoprevir 3 μM; BCL-xL inducer, ABT-737 3 μM; DAPT 5 μM; Compound E 1 μM. Scale bar 50 μm.
To probe into the mechanism of activation for the antiviral drug sensors and ABT-737 sensor, the inventors next inhibited γ-secretase with selective inhibitors, DAPT and compound E. Upon inhibition with either of these compounds, ICD driven activation of H2B-mCherry was inhibited (FIG. 4). Inhibition also occurred despite the presence of each associated sensor inducer, indicating γ-secretase plays a crucial role in MIMOsensor activation and is required for ICD release.

[2] = molecular target: T1, catalytically inactive NS3 protease (NS3^S139A, dNS3) sensor (Hepatitis C virus genotype 1a, UniProt P27958, S1165A); details: drug grazoprevir; histograms of H2B-mCherry, flow cytometry, 48 hours post-drug addition
T1 construct: transmembrane domain with γ-secretase cleavage site (TMD) (internal); Gal4-VP64 intracellular domain (C); expressed in transfected cells
T1 sequence (P27958 1027-1208 S1165A): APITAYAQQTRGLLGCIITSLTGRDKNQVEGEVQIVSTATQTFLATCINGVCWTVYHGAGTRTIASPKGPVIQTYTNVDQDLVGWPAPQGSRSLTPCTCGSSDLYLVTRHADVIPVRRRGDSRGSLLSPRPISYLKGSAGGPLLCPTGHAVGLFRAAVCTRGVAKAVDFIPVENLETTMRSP
Experimental: FIGS. 2A-2B. (FIG. 2A) Schematic of antiviral drug sensor which is designed to sense Hepatitis C Virus NS3 inhibitors. (FIG. 2B) Two sensors with varying sensitivity to antiviral drug based on the affinity of their intramolecular peptide. Activity of the sensor is shown as histograms of intracellular domain driven H2B-mCherry expression in clonal cell lines, measured by flow cytometry, 48 hours post-drug addition. […] Red arrows are drawn to highlight differences in sensitivity to ligand. Drug is grazoprevir or delivery vehicle control, DMSO.
as §1
For proof of concept, the ICD chosen was a synthetic transcription factor, Gal4-VP64, which activates UAS promoter driven H2B-mCherry gene expression. […] The substitution of the high affinity peptide for low affinity peptide appears to increase the sensitivity of the sensor, consistent with the theory of competitive displacement kinetics.

Row | Molecule | ICD driven activation of H2B-mCherry in presence of sensor inducer (γ-secretase) | sensitivity of the sensor to antiviral drug, by intramolecular peptide [2] | also measured
1 | CN(C)CC[C@H](CSc1ccccc1)Nc1ccc(S(=O)(=O)NC(=O)c2ccc(N3CCN(Cc4ccccc4-c4ccc(Cl)cc4)CC3)cc2)cc1[N+](=O)[O-] [ABT-737] | – | – | ICD driven H2B-mCherry expression ([1]; BCL-xL-BH3(G22)-TMD-Gal4-VP64 sensor, ABT-737 3 μM, images 24 hours after transfection and drug addition): activates ICD driven H2B-mCherry expression; activation of H2B-mCherry (sensor response to drug) ([1]; microscopy, 48 hours after transfection and drug addition): concentration dependent activation
2 | C[C@H](NC(=O)Cc1cc(F)cc(F)c1)C(=O)N[C@H]1N=C(c2ccccc2)c2ccccc2N(C)C1=O [Compound E] | ablated | – | ICD driven activation of H2B-mCherry in presence of sensor inducer (γ-secretase; listed as compound E): inhibited
3 | C[C@H](NC(=O)Cc1cc(F)cc(F)c1)C(=O)N[C@H](C(=O)OC(C)(C)C)c1ccccc1 [DAPT] | inhibited; also recorded: ablated | – | –
4 | DEEMEEC | – | high sensitivity | –
5 | GELDELVYLLDGPGYDPIHS [CP5-46A-4D5E] | – | intermediate sensitivity | –
